The values that follow come from US20180291325A1, “IN VITRO PHARMACOKINETIC-PHARMACODYNAMIC DEVICE” (Merck Sharp & Dohme Corp., priority 2015, published 2018).

Holding throughout (type): cell-based
Assay [1] has as its system HCV genotype 1B containing 5-2 cells. Nature of the assay: plate-based RNA content assay. Particulars: Hepatitis C virus; HCV genotype 1B 5-2 cells, plate-based RNA content assay (data not shown). The method, then: The EC50 of Compound against HCV genotype 1B containing 5-2 cells was determined to be 0.7 nM in plate-based RNA content assays (data not shown). A dose escalation experiment in which HCV genotype 1B 5-2 cells were dosed QD over three days at 0.3×EC50, 1×EC50, 3×EC50 and 10×EC50 and a dose fractionation experiment in which cells were dosed QD, BID or TID to obtain a constant AUC of ˜16.8 nM were performed using the HulaCell system. Results of the reporter assays for the dose escalation experiment are shown in FIGS. 6A-B. The combined PK results of the dose escalation experiment area shown in FIG. 7.

The subject of assay [2] is HCV genotype 1B (5-2) replicon cell line. The experiment in a line: HulaCell in vitro PK-PD PK driver experiments (dose escalation and dose fractionation; luciferase reporter and RT-PCR viral RNA). To be noted: adjusted to free fraction, Day 3. The method, then:
Three QD infusions of the HCV NS3/4 protease inhibitor, (1aR,5S,8S,10R,22aR)-N-[(1R,2S)-1-[(Cyclopropylsulfonamido)carbonyl]-2-ethenylcyclopropyl]-14-methoxy-5-(2-methylpropan-2-yl)-3,6-dioxo-1,1a,3,4,5,6,9,10,18,19,20,21,22,22a-tetradecahydro-8H-7,10-methanocyclopropa[18,19][1,10,3,6]dioxadiazacyclononadecino[11,12-b]quinoxaline-8-carboxamide (“Compound”; See U.S. Pat. No. 7,973,040) were tested in the Hula Cell using the in vitro PK-PD software program and PK was monitored by collecting samples at multiple time point during each infusion. In addition, microcarrier beads were also collected daily to measure changes in viral load by RT-PCR Taqman analysis of cell lysates.
A frozen vial of HCV genotype 1B replicon cells (5-2 cells which contain genotype 1B replicon and a Luciferase reporter) was thawed and seeded into one T-75 flask. At confluency, the flask was trypsinized and cells resuspended to 6×10^6 cells in 9.5 ml DMEM containing 10% FBS and 0.5 mg/ml G418 in a 50 ml LeviTube™. 0.5 ml of collagen-coated microcarrier bead slurry mixture (50% V/V) was added to the 9.5 ml of cells and attachment was performed using BioWiggler™ microcarrier loading program (RPM=60; 1 min mixing; 40 min settle (repeat 6x=4 hr total)). Continuous mixing at 60 rpm was performed overnight. The next morning, 30 ml of fresh media was added to the culture. The microcarriers and attached cells were allowed to settle before removing 30 ml of media with any unattached cells from the LeviTube™. Afterward, 30 ml of fresh media was added back to the LeviTube™ to make the final volume 40 ml. […]
PK/PD samples were collected on Day 0, Day 1, Day 2, and Day 3 directly from the 50 ml LeviTube™ at specified time points. […] Compound concentration in the PK samples was determined by Mass Spectroscopy analysis.
Samples for PD determination (viral load content by RT-PCR) were washed once with 1 ml PBS (w/out Mg^2+ and Ca^2+). […] Viral RNA content of the cells was determined by quantitative PCR. […]

For assay [3] the test system is unchanged. The experiment in a line: BelloCell in vitro PK-PD PK driver experiments. To be noted: adjusted to free fraction, Day 3. From the text: A 4-tube HulaCell system was validated by comparing the results for the Compound PK driver experiments, previously performed in the BelloCell® (data not shown), with the results obtained from dose escalation and dose fractionation studies performed using the HulaCell system.
Calculated PK Driver parameters from HulaCell experiments, compared to those determined in BelloCell experiments are shown in Table 1.
The Hula Cell was successfully used to determine the Maximum efficacy threshold values at Day 3 for Compound in the HCV genotype 1B (5-2) replicon cell line. The PK correlation curves were remarkably similar between the BelloCell® and Hula cell with the only noticeable differences being the prediction of the % T>EC50 and the AUC.

In assay [1], `C=C[C@@H]1C[C@]1(NC(=O)[C@@H]1C[C@@H]2CN1C(=O)[C@H](C(C)(C)C)NC(=O)O[C@@H]1C[C@H]1CCCCCc1nc3ccc(OC)cc3nc1O2)C(=O)NS(=O)(=O)C1CC1` [Compound, (1aR,5S,8S,10R,22aR)-N-[(1R,2S)-1-[(Cyclopropylsulfonamido)carbonyl]-2-ethenylcyclopropyl]-14-methoxy-5-(2-methylpropan-2-yl)-3,6-dioxo-1,1a,3,4,5,6,9,10,18,19,20,21,22,22a-tetradecahydro-8H-7,10-methanocyclopropa[18,19][1,10,3,6]dioxadiazacyclononadecino[11,12-b]quinoxaline-8-carboxamide] displayed an EC50 of 700 pM. In addition, in assay [2], the “Maximum Efficacy Threshold % T > EC50” value was at least 84%, the “Maximum Efficacy Threshold AUC0-24” value is at least 23.7 nM·h and the “Maximum Efficacy Threshold Cmin” value is recorded as at least 0.10 nM. Further, in assay [3], the “Maximum Efficacy Threshold % T > EC50” value is listed as at least 50%, the “Maximum Efficacy Threshold AUC0-24” value was at least 8.4 nM·h and the “Maximum Efficacy Threshold Cmin” value was at least 0.11 nM.

The term EC50 denotes the concentration at which the effect is half-maximal. A high value points to lower potency in that assay.
